Results on one molecule are retold here after publication PMC6337631, “Effective Tetradentate Compound Complexes against Leishmania spp. that Act on Critical Enzymatic Pathways of These Parasites” (Molecules, 2018).

For test [1], the system named is Leishmania infantum promastigote forms. The test can be described thus: Promastigote test (extracellular forms), L. infantum. Type of test: cell-based. To be noted: 72 h; 100 µM to 1 µM; mean ± SD of four determinations. On the procedure:
(§1) Promastigote forms of three different Leishmania spp., L. donovani (MHOM/PE/84/LC26), L. infantum (MCAN/ES/2001/UCM-10) and L. braziliensis (MHOM/BR/1975/M2904), were cultured in vitro in Medium Trypanosomes Liquid (MTL) supplemented with 10% inactivated foetal calf serum (FCS) in an air atmosphere at 28 °C, in Roux flasks (Corning, Manassas, VA, USA) with a surface area of 75 cm^2, according to [33].
(§2) The compounds and the reference drug Glu were dissolved in DMSO (Panreac, Barcelona, Spain) and tested from 100 µM to 1 µM with 0.1% (v/v) DMSO final concentration in plates. Therefore, controls were prepared including 0.1% (v/v) of this component, as previously described.
(§3) Promastigote forms were collected in the exponential growth phase and seeded at 1 × 10^5 parasites/mL in 24-well microplates (Nunc, Naperville, IL, USA), after adding each compound at concentrations from 100 µM to 1 µM and cultured in 500 μL/well volumes at 28 °C. After 72 h incubation, the leishmanicidal activity was assessed using a Neubauer haemocytometric chamber in comparison with the control cultures. […] Each drug concentration was tested in triplicate in four separate determinations.

Test [2] relates to Leishmania infantum amastigote forms. The test can be described thus: Amastigote test (intracellular forms in J774.2 macrophages), L. infantum. Type of test: cell-based. To be noted: 72 h, mean ± SD. On the procedure: as §1, §2
(§4) J774.2 macrophages were grown and seeded at a density of 1 × 10^4 cells/well in 24-well microplates (Nunc) with rounded coverslips on the bottom and cultured for 48 h in humidified 95% air, 5% CO2 atmosphere at 37 °C in Minimal Essential Medium (MEM) with 2 mM glutamine and 20% (v/v) inactivated FCS. Adherent macrophages were infected with metacyclic promastigotes in the stationary growth phase of L. donovani, L. infantum and L. braziliensis at a multiplicity of infection (MOI) ratio of 1:10 and maintained for 24 h. Non-phagocytosed parasites were removed by washing, and after addition of the testing compounds at concentrations from 100 µM to 1 µM, cultured in 500 μL/well volumes. Control cultures were also included. After 72 h incubation, leishmanicidal activity was assessed based on the number of amastigotes in treated and untreated cultures in methanol-fixed and Giemsa-stained preparations by analyzing 500 host cells distributed in randomly chosen microscopic fields. The leishmanicidal effect was calculated as described to determine the leishmanicidal activity in the promastigote forms. Each drug concentration was tested in triplicate in four separate determinations.

In test [3] the test system is Leishmania braziliensis promastigote forms. The test can be described thus: Promastigote test (extracellular forms), L. braziliensis. As to conditions: 72 h; 100 µM to 1 µM; mean ± SD. In kind it is cell-based. On the procedure:
as §1, §2, §3

The test system of test [4] is Leishmania braziliensis amastigote forms. The test can be described thus: Amastigote test (intracellular forms in J774.2 macrophages), L. braziliensis. Type of test: cell-based. As to conditions: 72 h, mean ± SD. On the procedure: as §1, §2, §4
Test [5] relates to Leishmania donovani promastigote forms. The test can be described thus: Promastigote test (extracellular forms), L. donovani. In kind it is cell-based. To be noted: 72 h; 100 µM to 1 µM; mean ± SD. On the procedure:
as §1, §2, §3

Test [6] concerns Leishmania donovani amastigote forms. The test can be described thus: Amastigote test (intracellular forms in J774.2 macrophages), L. donovani. To be noted: 72 h, mean ± SD. In kind it is cell-based. On the procedure: as §1, §2, §4
Test [7] relates to J774.2 murine macrophages. Briefly: Cytotoxicity test on macrophages by flow cytometry. To be noted: J774.2 macrophages, 72 h, read-out: Toxicity IC50 Macrophage. Type of test: cell-based, mouse. On the procedure:
as §2
The macrophage line J774.2 [European collection of cell cultures (ECACC) number 91051511] was derived in 1968 from a tumour in a female BALB/c mouse. Macrophages were grown in humidified 95% air, 5% CO2 atmosphere at 37 °C in Minimal Essential Medium (MEM) with 2 mM glutamine and 20% (v/v) inactivated FCS. The cytotoxicity test on macrophages was performed by Flow cytometry analysis according to a method previously described. Briefly, cells were seeded at a density of 5 × 10^4 cells/well in 24-well microplates (Nunc, Naperville, IL, USA). After 48 h incubation, the medium was removed, and fresh medium was added together with each test compound at concentrations from 100 µM to 1 µM and cultured in 500 μL/well volumes for 72 h. Thereafter, cells were recovered by centrifugation, and cell viability was determined by Flow cytometry (FACS Vantage flow cytometer, Becton Dickinson, San Jose, CA, USA) after incubating the cells with propidium iodide ([…]) and fluorescein diacetate (100 ng/mL). The percentage of viability was calculated in comparison with the control cultures. […] Each drug concentration was tested in triplicate in four separate determinations.
A general note: Flow cytometry measures light scatter and fluorescence of single cells or particles in a stream.

Another test concerns the target T1, human CuZn-SOD (Homo sapiens, UniProt P00441).
T1 construct: purchased Sigma Chemical Co. (St. Louis, MO, USA)
The test can be described thus: SOD inhibition assay, human CuZn-SOD. Type of test: biochemical. To be noted: assayed 100 µM to 0.1 µM; non-linear regression. On the procedure: The previous extraordinary results prompted us to evaluate the inhibitory effect of 3, 5–8 and 10 on the SOD activity. […]
(§5) Parasite cells were collected in the exponential growth phase by centrifugation (400g for 10 min). The pellet obtained after centrifugation was lysated by sonication, processed according to [38] and obtained the homogenate fraction which contained the parasite Fe-SOD. The protein content was quantified using the Sigma Bradford test, which uses BSA as a standard (no trace ability was certified for the BSA standard). Superoxide dismutase activities were determined using a method previously described, which measures the reduction in nitrobluetetrazolium (NBT) by superoxide ions. Human CuZn-SOD. Substrates used in these assays were obtained from Sigma Chemical Co. (St. Louis, MO, USA). Resulting data were analysed using the Newman−Keuls test.

In a further test the test system is parasitic Fe-SOD. The test can be described thus: SOD inhibition assay, parasitic Fe-SOD of the Leishmania spp. taken together. Type of test: biochemical. On the procedure: The previous extraordinary results prompted us to evaluate the inhibitory effect of 3, 5–8 and 10 on the SOD activity. […] We used promastigotes of Leishmania spp. to obtain Fe-SOD by cellular disruption and precipitation and assayed the compounds at concentrations ranging from 100 µM to 0.1 µM in each case.
as §5

Test [8] deals with L. infantum promastigotes. Briefly: Metabolite excretion by 1H-NMR, L. infantum. In kind it is cell-based, Leishmania infantum. As to conditions: IC25 concentration, 72 h, vs untreated. On the procedure: Trypanosomatids catabolizes glucose at a high rate, excreting into the medium partly oxidized end products such as acetate, succinate, L-alanine or L-lactate.
Cultures of L. donovani, L. infantum and L. braziliensis promastigotes were seeded in culture flaks at 5 × 10^5 cells/mL, and after the addition of the compounds at IC25 concentrations at 28 °C. Control cultures were also included. After 72 h of incubation, parasites were centrifuged at 400 × g for 10 min, and supernatants were collected in order to determine the excreted metabolites by ^1H-NMR. Chemical shifts were expressed in parts per million (ppm) using sodium 2,2-dimethyl-2-silapentane-5-sulphonate as the reference signal. The One-dimensional ^1H-NMR spectra were acquired with a VARIAN DIRECT DRIVE 400 MHz Bruker spectrometer (Rheinstetten, Germany) with an AutoX probe using D2O as solvent. The chemical shifts used to identify the respective metabolites were consistent with those described previously by some of the authors. The spectral region of 1.0–5.5 ppm was bucketed into a frequency window of 0.1 ppm. The peak (2.6 ppm) corresponding to DMSO was removed before binning, and the regions corresponding to water (4.5–5.5 ppm) and glucose (3.4–3.8 ppm) were excluded during binning to avoid artefacts due to pre-saturation. […]

Test [9] relates to L. braziliensis promastigotes. The test can be described thus: Ultrastructural alterations by TEM, L. braziliensis. In kind it is cell-based, Leishmania braziliensis. To be noted: 72 h at IC25 concentration. On the procedure:
(§6) Parasites were cultured at a density of 5 × 10^5 cells/mL with medium containing the tested compounds at IC25 concentrations. After 72 h at 28 °C, the cultures were processed using a technique previously described and analysed by TEM (LIBRA 120 PLUS, Zeiss, Barcelona, Spain).

For test [10], the system named is L. infantum promastigotes. The test can be described thus: Ultrastructural alterations by TEM, L. infantum. To be noted: 72 h at IC25 concentration. In kind it is cell-based, Leishmania infantum. On the procedure: as §6

T1 sequence (P00441 whole entry): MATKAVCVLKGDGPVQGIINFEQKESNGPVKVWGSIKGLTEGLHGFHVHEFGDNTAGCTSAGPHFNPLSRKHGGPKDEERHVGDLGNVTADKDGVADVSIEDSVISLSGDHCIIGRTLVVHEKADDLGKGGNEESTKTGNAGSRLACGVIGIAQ

Regarding `CN1CCN(C)CCN(Cc2ccccn2)CC1.O=S(=O)([O-])C(F)(F)F.O=S(=O)([O-])C(F)(F)F.[Mn+2]` [Compound 3], the IC50 was determined as 8.5 ± 0.4 µM in test [1]; 3.7 ± 1.6 µM in test [2]; 9.3 ± 0.3 µM in [3]; 8.7 ± 0.6 µM in [4]; 28.6 ± 3.5 µM in [5]; 11.7 ± 1.3 µM in test [6]. In addition, the values for the IC50 (in test [7]; on human CuZn-SOD; in the test with parasitic Fe-SOD) were 98.5 ± 6.3 µM, > 100 µM and > 100 µM, respectively. Also, the “Excretion variation ACETATE, L. infantum” value in test [8] was 18%. For the same molecule, the “Excretion variation SUCCINATE, L. infantum” value in test [8] was found to be 32%. Also, the “ultrastructural alterations of L. braziliensis promastigotes (TEM)” value in test [9] is “completely swollen, round and full of empty or lipid vacuoles”. Moreover, the “ultrastructural alterations of L. infantum promastigotes (TEM)” value in test [10] was “induced agglutination in the parasites”.

What is called IC50 is the midpoint of a concentration-inhibition curve.
